Experimental data: article PMC12194779, “Synergistic Insecticidal Activity of Plant Volatile Compounds: Impact on Neurotransmission and Detoxification Enzymes in Sitophilus zeamais” (Insects, 2025)
Converted amounts (≈) assume the structure as drawn. “And” between values parts separate entries of the source, which are not always exact repeats. Equal values may be shown once. Read-outs that look alike come from different tables or passages of the source.

Key:
[1] = tested on: AChE of S. zeamais; assay: AChE activity assay (modified Ellman) with S. zeamais protein extract; type: biochemical, Sitophilus zeamais; parameters: key to AChE Effect Inhibitor Type: C: competitive inhibitor; NC: non-competitive inhibitor; conditions: for AChE inhibition: 120 mg/L; for AChE Effect Inhibitor Type: Lineweaver–Burk; for AChE Effect IC50 ± SD / Ki: S. zeamais protein extract; for Ki: read-out: AChE Effect ki ± SD (inhibitory constant)
Experimental: The compounds and mixtures evaluated in the in vitro assays were prepared in the same buffer supplemented with 0.5% (v/v) Triton X-100 (Sigma-Aldrich®, Saint Louis, MO, USA).
The supernatant was filtered, and 20 mM benzamidine was added. The extracts were stored in 5 mL aliquots at −20 °C. Preliminary assays were performed to quantify the specific activity of AChE (0.02–1.00 U/mL), GST (0.1–0.8 U/mL), and CAT (0.1–25 U/mL), and to optimize assay conditions (enzyme dilution: 1/8 to 1% v/v; substrate concentrations: 2 × km or within assay linearity).
Then, 50 µL of DTNB and 50 µL of ATChI were added. […] Inhibition percentages were calculated using Equation (5).

[2] = tested on: glutathione S-transferase (GST) activity in S. zeamais; assay: GST activity assay (modified Habig) with S. zeamais protein extract; type: biochemical, Sitophilus zeamais; conditions: 120 mg/L
Experimental: (§1) Enzymatic assays were performed in the assay buffer, consisting of 0.1 M potassium phosphate buffer (pH 7.2). The compounds and mixtures evaluated in the in vitro assays were prepared in the same buffer supplemented with 0.5% (v/v) Triton X-100 (Sigma-Aldrich®, Saint Louis, MO, USA).
(§2) A modified version of the method described by Oviedo et al. was used. Adults of S. zeamais (8 g; ~3125 insects) were frozen in liquid nitrogen, homogenized in a 1:10 ratio with assay buffer, and centrifuged at 13,000× g for 60 min at 4 °C. The supernatant was filtered, and 20 mM benzamidine was added. The extracts were stored in 5 mL aliquots at −20 °C. Preliminary assays were performed to quantify the specific activity of AChE (0.02–1.00 U/mL), GST (0.1–0.8 U/mL), and CAT (0.1–25 U/mL), and to optimize assay conditions (enzyme dilution: 1/8 to 1% v/v; substrate concentrations: 2 × km or within assay linearity). Each experiment was performed independently three times, with three technical replicates per experiment.
A modified version of Habig’s method was used. The protein extract (50 µL; 0.59 U/mL) was incubated with 50 µL of the compound or mixture (120 mg/L), followed by 50 µL each of CDNB and reduced glutathione (GSH). Kinetic absorbance was measured at 340 nm for 8 min. Blanks (without substrate) and quercetin (positive control) were included. Inhibition (%) was calculated using Equation (5), and treatment differences were evaluated via parametric ANOVA (α = 0.05) in GraphPad Prism 8.0.2 [42, 43]. Each experiment was performed independently three times, with three technical replicates per experiment.(5) % Inhibition=1−Am−AB/AC ×100 where Am is the absorbance of the sample, AB is the absorbance of the blank, and AC is the absorbance of the negative control.

[3] = tested on: catalase (CAT) activity in S. zeamais; assay: CAT activity assay (adapted Sinha) with S. zeamais protein extract; type: biochemical, Sitophilus zeamais; conditions: 120 mg/L
Experimental: as §1, §2
Sinha’s method was adapted. In Eppendorf tubes, 100 µL of protein extract (24.77 U/mL) was mixed with 100 µL of the compound or mixture (120 mg/L) and incubated at 37 °C for 15 min. Then, 200 µL of H2O2 was added and shaken for 2.5 min. The reaction was stopped by adding 600 µL of K2Cr2O7, followed by incubation at 100 °C for 10 min. A 200 µL aliquot was transferred to a 96-well plate, and absorbance was recorded at 570 nm. Blanks and sodium azide (positive control) were used. The percentage of inhibition was calculated using Equation (5). Differences among treatments were analyzed via ANOVA (α = 0.05) in GraphPad Prism. Each experiment was performed independently three times, with three technical replicates per experiment.

[4] = tested on: Sitophilus zeamais; type: in vivo; conditions: for Contact Toxicity LD50i (LC-95%): mixtures and their components (Table 3); for Contact Toxicity LD90 (95% FL) / Contact Toxicity LD50 (95% FL): topical, 24 h after exposure
Experimental: (§3) The insects used in this study were Sitophilus zeamais Motschulsky (Coleoptera: Curculionidae), identified by the Instituto Colombiano Agropecuario (ICA) under report number R3823M0000425. […] The adult insects used in all the experiments were 6 to 10 days post-emergence.
Groups of 10 insects, previously placed in Petri dishes, were immobilized by exposure to low temperatures (0 °C). An initial dose of 50.0 µg per adult was applied topically to the dorsal thorax of each insect using aliquots of 0.20 µL from 0.25 mg/µL solutions in n-hexane. […] All treatments were performed in two independent experiments, each with four replicates. Insect mortality was assessed after 24 h, and mortality percentages were calculated using Abbott’s correction formula (Equation (1)).
(§4) Mixtures predicted by the RSM were prepared based on mole fractions. […] Four replicates were performed for each treatment and control across two independent experimental runs.
(§5) Dose reduction indices (DRIs) were also calculated to estimate how much the dose of each compound in a synergistic combination could be reduced to achieve a 50% effect (Equation (4)). DRIs were interpreted as favorable when >1, neutral at 1, and unfavorable when <1.

[5] = parameters: method as in doi:10.1016/B978-0-12-819092-0.00021-2; conditions: cited from earlier work
[6] = tested on: Sitophilus zeamais; assay: whole plant or invertebrate; conditions: for EC90: read-out: Fumigant Toxicity LC90 (95% FL)
Experimental: as §3
The treated disks were affixed to the inner surface of the screw cap of 22 mL glass vials. […] All treatments were performed in two independent experiments, each with five replicates.
as §4
as §5, with “<1. Values above the log DRI = 0 line indicate favorable dose reductions.(4) (IRD)i=CL50i(fax)i/(1−(fax)i)^1/mi/(D)i” for “<1.”

[7] = tested on: S. zeamais; conditions: cited from earlier work; for LC50 in vapor-phase assays without physical barriers: previous reports
[8] = tested on: S. zeamais; parameters: method as in PMID 21173724, PMID 22236213; conditions: cited from earlier work
[9] = cited from earlier work
[10] = tested on: CAT activity in S. oryzae; parameters: method as in PMID 31027573; conditions: cited from earlier work
[11] = Sitophilus zeamais, 24 h, read-out: Fumigant Toxicity LC50i (LC-95%)
[12] = Sitophilus zeamais, in Homo sapiens, 24 h, read-out: Fumigant Toxicity LC50 (95% FL)
[13] = Sitophilus zeamais, in Homo sapiens, 24 h
[14] = Sitophilus zeamais, read-out: LC50 values, fumigant activity (Figure 3)

CC(C)=C1CC[C@@H](C)CC1=O [Compound C1, R-(+)-Pulegone]
AChE inhibition [1]: 33.52%
GST Inhibition λ340 (%) [2]: 2.4%
CAT Inhibition λ570 nm (%) [3]: 4.3%
Contact Toxicity LD50i (LC-95%) [4]: 4.85 µg/Adult
Contact Toxicity LD90 (95% FL) [4]: 7.40 (6.79–8.28) µg/Adult
LD50 (i.p.) ([5]; i.p.): 73 mg/kg
LD50 (i.v.) ([5]; i.v.): 80 mg/kg
oral LD50 [5]: 810 mg/kg
LC50 [6, 11]: 0.58 µg/mL
LC50 [6, 12]: 0.58 µg/mL and 3.81 µM
EC90 [6, 13]: 0.92 µg/mL and 6.07 µM

CC(C)=C1CC[C@H](C)CC1=O [Compound C2, S-(−)-Pulegone]
AChE inhibition type (Lineweaver–Burk plots), in words [1]: competitive inhibition
AChE inhibition, times higher than the R-enantiomer (C1) [1]: 2.3 times
AChE Effect Inhibitor Type [1]: C
AChE Effect IC50 ± SD [1]: 36.60 ± 3.29 µg/mL
Ki [1]: 50.3 ± 0.74 µM
GST Inhibition λ340 (%) [2]: 4.3%
CAT Inhibition λ570 nm (%) [3]: 2.4%
Contact Toxicity LD50i (LC-95%) [4]: 7.44 µg/Adult
Contact Toxicity LD90 (95% FL) [4]: 9.64 (9.05–10.54) µg/Adult
LC50 [6, 11]: 0.97 µg/mL
LC50 [6, 12]: 0.97 µg/mL and 6.37 µM
EC90 [6, 13]: 1.68 µg/mL and 11.1 µM

C=C(C)[C@@H]1CC=C(C)C(=O)C1 [Compound C4, R-(−)-Carvone]
Contact Toxicity LD50 (95% FL) [4]: 16.89 (14.56–19.35) µg/Adult
Contact Toxicity LD90 (95% FL) [4]: 28.45 (24.99–34.24) µg/Adult
Fumigant LC50 reported in 7-day exposure assays [7]: 2.76 µg/mL
LC50 [6, 12]: 1.42 µg/mL and 9.48 µM
EC90 [6, 13]: 2.17 µg/mL and 14.4 µM
LC50 [6, 14]: 1.42 µg/mL
Contact LD50 previously reported for 7-day assays [8]: 2.79 µg/adult

CC1=CC[C@@](O)(C(C)C)CC1 [Compound C5, R-(−)-Terpinen-4-ol]
Contact Toxicity LD50 (95% FL) [4]: 19.64 (18.42–21.45) µg/Adult
Contact Toxicity LD90 (95% FL) [4]: 24.82 (22.64–29.63) µg/Adult
Fumigant LC50 reported in 7-day exposure assays [7]: 4.79 µg/mL
LC50 [6, 12]: 4.03 µg/mL and 26.1 µM
EC90 [6, 13]: 6.13 µg/mL and 39.8 µM
LC50 [6, 14]: 4.03 µg/mL

Cc1ccc(C(C)C)cc1 [Compound C12, p-Cymene]
LC50 in vapor-phase assays without physical barriers [7]: 23.3 mg/L (≈ 174 µM)
LC50 [6, 12]: 28.7 µg/mL and 214 µM
EC90 [6, 13]: 47 µg/mL and 350 µM

CC1=CC=C(C(C)C)CC1 [Compound C13, α-Terpinene]
LC50 in vapor-phase assays without physical barriers [7]: 56.2 mg/L (≈ 413 µM)
LC50 [6, 12]: 60.2 µg/mL and 442 µM
EC90 [6, 13]: 96.2 µg/mL and 706 µM

CC1=CC[C@H](C(C)C)C=C1 [Compound C14, R-(−)-α-Phellandrene]
LC50 in vapor-phase assays without physical barriers [7]: 72.7 mg/L (≈ 534 µM)
Fumigant Toxicity LC50 (95% FL) ([6]; S. zeamais adults, 24 h after exposure): 88.87 (69.70–108.27) mg L^−1
LC50 ([6]; read-out: Fumigant Toxicity LC50 (95% FL), S. zeamais adults, 24 h after exposure): 652 µM

CC1=CCC2CC1C2(C)C (stereo not drawn) [Compound C19, α-Pinene]
LC50 in vapor-phase assays without physical barriers [7]: 120 µL/L
LC50 [6, 12]: 110 µg/mL and 810 µM
EC90 [6, 13]: 179 µg/mL and 1.31 mM

CCCCCCCCC [Compound C20, n-Nonane]
Contact Toxicity LD50 (95% FL) [4]: 21.42 µg/Adult
LC50 [6, 12]: 109 µg/mL and 851 µM
EC90 [6, 13]: 172 µg/mL and 1.34 mM
Contact LD50 previously reported for 7-day assays [8]: 17.62 µg/adult

Cc1ccc(C(C)C)cc1O [Compound C25, Carvacrol]
AChE inhibition [1]: 46.85%
GST Inhibition λ340 (%) [2]: 19.3%
Contact Toxicity LD50i (LC-95%) [4]: 8.71 µg/Adult
Contact Toxicity LD90 (95% FL) [4]: 13.45 (12.19–15.38) µg/Adult
oral LD50 [5]: 2462.23 mg/kg

C=CCc1ccc(O)c(OC)c1 [Compound C26, Eugenol]
GST Inhibition λ340 (%) [2]: 24.3%
CAT Inhibition λ570 nm (%) [3]: 19.9%
Contact Toxicity LD50i (LC-95%) [4]: 20.90 µg/Adult
Contact Toxicity LD50 (95% FL) [4]: 20.9 (19.22–22.65) µg/Adult
Contact Toxicity LD90 (95% FL) [4]: 30.82 (28.35–34.42) µg/Adult

C/C=C/c1ccc(OC)cc1 [Compound C29, trans-Anethol]
AChE inhibition type (Lineweaver–Burk plots), in words [1]: competitive inhibition
AChE Effect Inhibitor Type [1]: C
AChE Effect IC50 ± SD [1]: 4.24 ± 0.36 µg/mL
Ki [1]: 43.6 ± 3.46 µM
AChE potency, times more potent than isomer estragole (C11) ([1]; ratio of IC50): 6.5 times
GST Inhibition λ340 (%) [2]: ~ 17.5% and 17.5%
CAT Inhibition λ570 nm (%) [3]: 23.3%
Contact Toxicity LD90 (95% FL) [4]: 46.08 (41.56–52.95) µg/Adult

CC(C)=CCC[C@@H](C)CC=O [Compound C33, Citronellal]
AChE inhibition type (Lineweaver–Burk plots), in words [1]: competitive inhibition
AChE Effect Inhibitor Type [1]: C
AChE Effect IC50 ± SD [1]: 7.72 ± 0.78 µg/mL
Ki [1]: 199 ± 3.51 µM
GST Inhibition λ340 (%) [2]: 4.3%
Contact Toxicity LD50i (LC-95%) [4]: 36.94 µg/Adult
Contact Toxicity LD50 (95% FL) [4]: 36.94 (34.60–39.14) µg/Adult
Contact Toxicity LD90 (95% FL) [4]: 50.64 (47.46–55.39) µg/Adult
Contact LD50 previously reported for 7-day assays [8]: 8.54 µg/adult

CC1(C)[C@H](C(=O)O[C@H](C#N)c2cccc(Oc3ccccc3)c2)[C@@H]1C=C(Br)Br [deltamethrin]
mortality ([9]; 1 ppm, after 14 days): 45%

CC(C)[C@@H]1CC[C@@H](C)CC1=O [menthone]
reduction of CAT activity [10]: ~ 30%

CC1(C)C(C=C(Cl)Cl)C1C(=O)OCc1cccc(Oc2ccccc2)c1 (stereo not shown) [permethrin]
reported LD50 [9]: 42.75 µg/adult
